In patent US20250134860A1, “NOVEL COMPOUND, AND COMPOSITION FOR PREVENTING, ALLEVIATING OR TREATING BACTERIAL INFLAMMATION AND INFLAMMASOME-MEDIATED DISEASES, COMPRISING SAME AS ACTIVE INGREDIENT” (Quorum Bio Co., Ltd., priority 2022, published 2025):

Test system: P. aeruginosa
Assay: Inhibitory effect on biofilm formation in P. aeruginosa
Type: cell-based, Pseudomonas aeruginosa
Details: 0.006, 0.06, 0.6 μg/ml; 48 hours; compared with control (CT)
Description: The inhibitory effect of the compound of Example 1-2 on biofilm formation in P. aeruginosa (available from the Korean Collection for Oral Microbiology (KCOM)) and A. baumannii (available from the Korea Culture Center of Microorganisms (KCCM)) was confirmed.
Sterilized cover glass slips (round, 12 mm radius) were placed individually at a bottom of each well of a cell culture plate (24-well plate) using forceps, and the compound of Example 1-2 was diluted in the medium (P. aeruginosa: LB medium, A. baumannii: NB medium) cultured with bacteria so that the final concentrations were 0.006 μg/ml, 0.06 μg/ml, and 0.6 μg/ml.
The prepared culture medium was dispensed into a cell culture plate in which glass slips were placed, and the respective bacteria were inoculated to a concentration of 2×10^7 cells/ml. […]
The biofilm in which bacteria cultured for each group were formed on glass slips was stained with 1% crystal violet solution for 15 minutes, and then washed three times with PBS (phosphate buffered saline) solution, and decolorized with acetone-alcohol (20:80, vol/vol). After the decolorizing solution containing crystal violet was put in 200 μl increments in a 96-well microplate for each group, the absorbance (OD590nm) was measured using an absorbance microplate reader (Epoch2, Bio-Tek, USA), and the biofilm formation level was compared.

Cc1ccc(C(=C2c3ccccc3C(=O)N2C)c2ccc(C)cc2)cc1 [Example 1-2, 3-(di-p-tolylmethylene)-2-methylisoindolin-1-one]
biofilm formation of P. aeruginosa: significantly suppressed in a concentration-dependent manner
